Results published in PubChem BioAssay (NCI).
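Compound exposure: 48 hours, 5 concentrations, 96-well plates. GI50 marks 50% less growth. TGI marks complete inhibition of growth.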

Tests used:
Test in all cases: NCI tumour cell line growth inhibition, 48 h
DMS 273 small cell lung = system: DMS 273 small cell lung
KM20L2 colon = system: KM20L2 colon
LOX IMVI melanoma = system: LOX IMVI melanoma
LXFL 529 NSCLC = system: LXFL 529 NSCLC
SNB-78 CNS = system: SNB-78 CNS
UACC-62 melanoma = system: UACC-62 melanoma
MDA-MB-231 breast = system: MDA-MB-231 breast
PC-3 prostate = system: PC-3 prostate
T-47D breast = system: T-47D breast
DMS 114 small cell lung = system: DMS 114 small cell lung

| SMILES | TGI (DMS 273 small cell lung) | TGI (KM20L2 colon) | TGI (LOX IMVI melanoma) | TGI (LXFL 529 NSCLC) | TGI (SNB-78 CNS) | TGI (UACC-62 melanoma) | GI50 (LOX IMVI melanoma) | GI50 (MDA-MB-231 breast) | TGI (MDA-MB-231 breast) | GI50 (PC-3 prostate) | TGI (PC-3 prostate) | GI50 (T-47D breast) | TGI (T-47D breast) | GI50 (UACC-62 melanoma) | TGI (DMS 114 small cell lung) |
| --- | --- | --- | --- | --- | --- | --- | --- | --- | --- | --- | --- | --- | --- | --- | --- |
| N#CC1CC2(C1)OCCS2 (stereo not drawn) | > 100 µM | > 100 µM | > 100 µM | > 100 µM | > 100 µM | > 100 µM |  |  |  |  |  |  |  |  |  |
| O=C1Nc2ccc(F)cc2/C1=C/c1ccc[nH]1 |  |  | > 25 µM |  |  | > 25 µM | 24.2 µM | 7.65 µM | > 25 µM | > 25 µM | > 25 µM | 1.03 µM | > 14.2 µM | > 25 µM |  |
| COc1ccc(OC)c2c(C(=O)O)c(Cc3ccccc3)ccc12 | > 100 µM | > 100 µM | > 100 µM | > 100 µM |  | > 100 µM |  |  |  |  |  |  |  |  | > 100 µM |
| CC(CO)(CO)NCCCCn1ccc2c1C(=O)c1c(c(O)c3ccccc3c1O)C2=O |  |  |  |  |  |  |  |  |  | 1.52 µM | 3.11 µM | 21.1 µM | 65.8 µM |  |  |
| Br[C](Br)(Br)[Hg][c]1ccccc1 |  |  | 23.2 µM |  |  | 38.2 µM | 9.71 µM | 18.1 µM | 41.3 µM | 14.7 µM | 28 µM | 9.56 µM | 43.7 µM | 16.4 µM |  |
| CC1=C(O)C(=O)C=C2C1=CC=C1[C@@]2(C)CC[C@@]2(C)[C@@H]3C[C@](C)(C(=O)O)CC[C@]3(C)CC[C@]12C |  |  | 0.0414 µM |  |  | 0.0669 µM |  |  | 0.0664 µM |  | 0.185 µM |  | 0.0807 µM |  |  |
| CCOC(=O)c1ccc(C)c(N=NN(C)C)c1 | > 100 µM | > 100 µM | > 100 µM |  |  | > 100 µM |  |  |  |  |  |  |  |  | > 100 µM |
| COc1cccc(C#Cc2ccccc2C#CCCCCO)c1 |  |  | 21.2 µM |  |  | 19.8 µM | 6.3 µM | 3.41 µM | 13.2 µM | 9.83 µM | 23.7 µM | 18.5 µM | 43.1 µM | 5.7 µM |  |
| C/C(N=NC(=S)N(C)C)=C1\C=CC=CN1O | > 100 µM | > 100 µM | > 100 µM | > 100 µM | > 100 µM | > 93 µM |  |  | > 100 µM |  | > 100 µM |  | > 100 µM |  |  |
| COc1cccc2c(=O)c3c(sc12)c(N1CCNCC1)nc1ccccc13 |  |  | 3.01 µM |  |  | 3.19 µM | 1.56 µM | 1.7 µM | 3.32 µM | 1.62 µM | 3.28 µM | 1.9 µM | 4.57 µM | 1.73 µM |  |
| CCCCCCCCCCCCCCCCCCOc1ccccc1CC(=O)OCC[N+]1(C)CCCC1 |  |  | 3.36 µM |  |  | 3.33 µM | 1.8 µM | 1.7 µM | 3.55 µM |  |  | 3 µM | 17 µM | 1.63 µM |  |
| CN(C)C(=O)[C@H](O)[C@H](Cc1ccccc1)NC(=O)c1cc2cc(Cl)ccc2[nH]1 |  |  | 38.5 µM |  |  | 32.7 µM | 17 µM | 19.6 µM | 52.8 µM | 24.4 µM | > 89.6 µM | 25.1 µM | > 96.7 µM | 13.5 µM |  |
